In ChEMBL document CHEMBL1138648, “Synthesis of new N-(2-(trifluoromethyl)pyridin-4-yl)anthranilic acid derivatives and their evaluation as anticancer agents” (2004):

Columns and labels:
Format in all cases: functional
NCI-H322M = test: Growth inhibitory activity against non small cell lung cancer NCI-H322M cell line was determined; details: Homo sapiens
MCF7 [1] = test: Growth inhibitory activity against Breast cancer MCF-7 cell line was determined; details: Homo sapiens
UACC-257 = test: Growth inhibitory activity against Melanoma UACC-257 cell line was determined; details: Homo sapiens
HCC 2998 = test: Growth inhibitory activity against colon cancer HCC2998 cell line was determined; details: Homo sapiens
Hs-578T = test: Growth inhibitory activity against Breast cancer HS 578T cell line was determined; details: Homo sapiens
786-0 = test: Growth inhibitory activity against Renal cancer 786-0 cell line was determined; details: Homo sapiens
NCI/ADR-RES = test: Growth inhibitory activity against Breast cancer NCI/ADR-RES cell line was determined; details: Homo sapiens
SF-268 [2] = test: Growth inhibitory activity against CNS cancer SF-268 cell line was determined; details: Homo sapiens
CCRF-CEM = test: Growth inhibitory activity against Leukemia CCRF-CEM cell line was determined; details: Homo sapiens
A549 = test: Growth inhibitory activity against non small cell lung cancer A549/ATCC cells; details: Homo sapiens
TK-10 = test: Growth inhibitory activity against Renal cancer TK-10 cell line was determined; details: Homo sapiens
NCI-H522 = test: Growth inhibitory activity against non small cell lung cancer H522 cell line was determined; details: Homo sapiens
SF-268 [3] = test: In vitro percent of proliferation of vehicle treated SF-268 human CNS cell lines was determined at 0.0010 M concentration
HOP-92 = test: Growth inhibitory activity against non small cell lung cancer HOP-92 cell line was determined; details: Homo sapiens
SK-OV-3 = test: Growth inhibitory activity against Ovarian cancer SK-OV-3 cell line was determined; details: Homo sapiens
M14 = test: Growth inhibitory activity against Melanoma M14 cell line was determined; details: Homo sapiens
HL-60 = test: Growth inhibitory activity against Leukemia HL-60(TB) cell line was determined; details: Homo sapiens
UACC-62 = test: Growth inhibitory activity against Melanoma UACC-62 cell line was determined; details: Homo sapiens
NCI-H460 [4] = test: Growth inhibitory activity against non small cell lung cancer H460 cell line was determined; details: Homo sapiens
K562 = test: Growth inhibitory activity against Leukemia K-562 cell line was determined; details: Homo sapiens
HCT-15 = test: Growth inhibitory activity against colon cancer HCT-15 cell line was determined; details: Homo sapiens
NCI-H226 = test: Growth inhibitory activity against non small cell lung cancer NCI-H226 cell line was determined; details: Homo sapiens
MCF7 [5] = test: In vitro percent of proliferation of vehicle treated MCF-7 human breast cell lines was determined at 0.0010 M concentration
EKVX = test: Growth inhibitory activity against non small cell lung cancer EKVX cell line was determined; details: Homo sapiens
HOP-62 = test: Growth inhibitory activity against non small cell lung cancer HOP-62 cell line was determined; details: Homo sapiens
SR = test: Growth inhibitory activity against Leukemia SR cell line was determined; details: Homo sapiens
MDA-MB-435 = test: Growth inhibitory activity against Breast cancer MDA-MB-435 cell line was determined; details: Homo sapiens
HCT-116 = test: Growth inhibitory activity against colon cancer HCT116 cell line was determined; details: Homo sapiens
DU-145 = test: Growth inhibitory activity against Prostate cancer DU-145 cell line was determined; details: Homo sapiens
SF-539 = test: Growth inhibitory activity against CNS cancer SF-539 cell line was determined; details: Homo sapiens
PC-3 = test: Growth inhibitory activity against Prostate cancer PC-3 cell line was determined; details: Homo sapiens
OVCAR-5 = test: Growth inhibitory activity against Ovarian cancer OVCAR-5 cell line was determined; details: Homo sapiens
MDA-MB-231 = test: Growth inhibitory activity against Breast cancer MDA-MB-231/ATCC cell line was determined; details: Homo sapiens
RPMI-8226 = test: Growth inhibitory activity against Leukemia RPMI-8226 cell line was determined; details: Homo sapiens
OVCAR-3 = test: Growth inhibitory activity against Ovarian cancer OVCAR-3 cell line was determined; details: Homo sapiens
SK-MEL-5 = test: Growth inhibitory activity against Melanoma SK-MEL-5 cell line was determined; details: Homo sapiens
A498 = test: Growth inhibitory activity against Renal cancer A498 cell line was determined; details: Homo sapiens
SNB-19 = test: Growth inhibitory activity against CNS cancer SNB-19 cell line was determined; details: Homo sapiens
BT-549 = test: Growth inhibitory activity against Breast cancer BT-549 cell line was determined; details: Homo sapiens
HT-29 = test: Growth inhibitory activity against colon cancer HT-29 cell line was determined; details: Homo sapiens
RXF 393 = test: Growth inhibitory activity against Renal cancer RXF 393 cell line was determined; details: Homo sapiens
NCI-H23 = test: Growth inhibitory activity against non small cell lung cancer NCI-H23 cell line was determined; details: Homo sapiens
SW-620 = test: Growth inhibitory activity against colon cancer SW-620 cell line was determined; details: Homo sapiens
OVCAR-8 = test: Growth inhibitory activity against Ovarian cancer OVCAR-8 cell line was determined; details: Homo sapiens
KM12 = test: Growth inhibitory activity against colon cancer KM12 cell line was determined; details: Homo sapiens
SN12C = test: Growth inhibitory activity against Renal cancer SN12C cell line was determined; details: Homo sapiens
COLO 205 = test: Growth inhibitory activity against colon cancer COLO 205 cell line was determined; details: Homo sapiens
U-251 = test: Growth inhibitory activity against CNS cancer U251 cell line was determined; details: Homo sapiens
LOX IMVI = test: Growth inhibitory activity against Melanoma LOX IMVI cell line; details: Homo sapiens
OVCAR-4 = test: Growth inhibitory activity against Ovarian cancer OVCAR-4 cell line was determined; details: Homo sapiens
SF-295 = test: Growth inhibitory activity against CNS cancer SF-295 cell line was determined; details: Homo sapiens
NCI-H460 [6] = test: In vitro percent of proliferation of vehicle treated NCI-H460 human lung cell lines was determined at 0.0010 M concentration
MOLT-4 = test: Growth inhibitory activity against Leukemia MOLT-4 cell line was determined; details: Homo sapiens
CAKI-1 = test: Growth inhibitory activity against Renal cancer CAKI-1 cell line was determined; details: Homo sapiens
SK-MEL-28 = test: Growth inhibitory activity against Melanoma SK-MEL-28 cell line was determined; details: Homo sapiens
ACHN = test: Growth inhibitory activity against Renal cancer ACHN cell line was determined; details: Homo sapiens

O=C(Oc1cccnc1)c1ccccc1Nc1ccnc(C(F)(F)F)c1
GI50 (NCI-H322M): 2900 nM | GI50 (MCF7 [1]): 160 nM | GI50 (UACC-257): 55000 nM | GI50 (HCC 2998): 360 nM | GI50 (Hs-578T): 570 nM | GI50 (786-0): 270 nM | GI50 (NCI/ADR-RES): 80 nM | GI50 (SF-268 [2]): 60 nM | GI50 (CCRF-CEM): 30 nM | GI50 (A549): 720 nM | GI50 (TK-10): 270 nM | GI50 (NCI-H522): 410 nM | Proliferation (SF-268 [3]): 75% | GI50 (HOP-92): 480 nM | GI50 (SK-OV-3): 250 nM | GI50 (M14): 30 nM | GI50 (HL-60): 44000 nM | GI50 (UACC-62): 350 nM | GI50 (NCI-H460 [4]): 340 nM | GI50 (K562): 40 nM | GI50 (HCT-15): 290 nM | GI50 (NCI-H226): 510 nM | Proliferation (MCF7 [5]): 62% | GI50 (EKVX): 390 nM | GI50 (HOP-62): 10 nM | GI50 (SR): 10 nM | GI50 (MDA-MB-435): 60 nM | GI50 (HCT-116): 30 nM | GI50 (DU-145): 220 nM | GI50 (SF-539): 10 nM | GI50 (PC-3): 420 nM | GI50 (OVCAR-5): 490 nM | GI50 (MDA-MB-231): 390 nM | GI50 (RPMI-8226): 50 nM | GI50 (OVCAR-3): 140 nM | GI50 (SK-MEL-5): 170 nM | GI50 (A498): 520 nM | GI50 (SNB-19): 330 nM | GI50 (BT-549): 10 nM | GI50 (HT-29): 50 nM | GI50 (RXF 393): 340 nM | GI50 (NCI-H23): 60 nM | GI50 (SW-620): 60 nM | GI50 (OVCAR-8): 690 nM | GI50 (KM12): 310 nM | GI50 (SN12C): 410 nM | GI50 (COLO 205): 140 nM | GI50 (U-251): 520 nM | GI50 (LOX IMVI): 50 nM | GI50 (OVCAR-4): 460 nM | GI50 (SF-295): 310 nM | Proliferation (NCI-H460 [6]): 22% | GI50 (MOLT-4): 30 nM | GI50 (CAKI-1): 50 nM | GI50 (SK-MEL-28): 660 nM | GI50 (ACHN): 260 nM
